Measurements from ChEMBL document CHEMBL4308841, “Synthesis, in vitro antiproliferative activity, and kinase inhibitory effects of pyrazole-containing diarylureas and diarylamides” (Eur J Med Chem, 2018).

What was measured:
UO-31 = experiment: Growth inhibition of human UO31 cells incubated for 48 hrs by sulforhodamine B assay; assay type: functional, cell-based; settings: UO-31, 48 h
CCRF-CEM = experiment: Growth inhibition of human CCRF-CEM cells assessed as cell growth at 100 uM incubated for 48 hrs by sulforhodamine B assay relative to control; assay type: functional; settings: read-out: Activity
PC-3 = experiment: Growth inhibition of human PC3 cells assessed as cell growth at 0.1 uM incubated for 48 hrs by sulforhodamine B assay relative to control; assay type: functional; settings: PC-3, 48 h, read-out: Activity
HCT-15 = experiment: Growth inhibition of human HCT15 cells incubated for 48 hrs by sulforhodamine B assay; assay type: functional, cell-based; settings: HCT-15, 48 h
RPMI-8226 = experiment: Growth inhibition of human RPMI8226 cells assessed as cell growth at 1 uM incubated for 48 hrs by sulforhodamine B assay relative to control; assay type: functional; settings: RPMI-8226, 48 h, read-out: Activity
HOP-62 = experiment: Growth inhibition of human HOP62 cells incubated for 48 hrs by sulforhodamine B assay; assay type: functional, cell-based; settings: HOP-62, 48 h
HCT-116 = experiment: Growth inhibition of human HCT116 cells assessed as cell growth at 0.1 uM incubated for 48 hrs by sulforhodamine B assay relative to control; assay type: functional; settings: HCT-116, 48 h, read-out: Activity
MDA-MB-435 = experiment: Growth inhibition of human MDA-MB-435 cells assessed as cell growth at 100 uM incubated for 48 hrs by sulforhodamine B assay relative to control; assay type: functional; settings: MDA-MB-435, 48 h, read-out: Activity
A549 = experiment: Growth inhibition of human A549/ATCC cells assessed as cell growth at 100 uM incubated for 48 hrs by sulforhodamine B assay relative to control; assay type: functional; settings: A549, 48 h, read-out: Activity
SF-295 = experiment: Growth inhibition of human SF295 cells assessed as cell growth at 0.01 uM incubated for 48 hrs by sulforhodamine B assay relative to control; assay type: functional; settings: SF-295, 48 h, read-out: Activity
ACHN = experiment: Growth inhibition of human ACHN cells assessed as cell growth at 1 uM incubated for 48 hrs by sulforhodamine B assay relative to control; assay type: functional; settings: read-out: Activity
MCF7 = experiment: Growth inhibition of human MCF7 cells incubated for 48 hrs by sulforhodamine B assay; assay type: functional, cell-based; settings: MCF7, 48 h
OVCAR-3 [1] = experiment: Growth inhibition of human OVCAR3 cells assessed as cell growth at 1 uM incubated for 48 hrs by sulforhodamine B assay relative to control; assay type: functional; settings: OVCAR-3, 48 h, read-out: Activity
Hs-578T = experiment: Growth inhibition of human Hs578T cells assessed as cell growth at 0.1 uM incubated for 48 hrs by sulforhodamine B assay relative to control; assay type: functional; settings: read-out: Activity
NCI-H23 = experiment: Growth inhibition of human NCI-H23 cells incubated for 48 hrs by sulforhodamine B assay; assay type: functional, cell-based; settings: NCI-H23, 48 h
MDA-MB-231 [2] = experiment: Growth inhibition of human MDA-MB-231 cells assessed as cell growth at 0.1 uM incubated for 48 hrs by sulforhodamine B assay relative to control; assay type: functional; settings: MDA-MB-231, 48 h, read-out: Activity
SF-539 = experiment: Growth inhibition of human SF539 cells incubated for 48 hrs by sulforhodamine B assay; assay type: functional, cell-based; settings: SF-539, 48 h
SK-MEL-28 = experiment: Growth inhibition of human SK-MEL-28 cells incubated for 48 hrs by sulforhodamine B assay; assay type: functional, cell-based; settings: SK-MEL-28, 48 h
SK-MEL-2 [3] = experiment: Growth inhibition of human SK-MEL-2 cells incubated for 48 hrs by sulforhodamine B assay; assay type: functional, cell-based; settings: SK-MEL-2, 48 h
SK-MEL-2 [4] = experiment: Growth inhibition of human SK-MEL-2 cells assessed as cell growth at 0.1 uM incubated for 48 hrs by sulforhodamine B assay relative to control; assay type: functional; settings: SK-MEL-2, 48 h, read-out: Activity
OVCAR-5 = experiment: Growth inhibition of human OVCAR5 cells assessed as cell growth at 0.01 uM incubated for 48 hrs by sulforhodamine B assay relative to control; assay type: functional; settings: OVCAR-5, 48 h, read-out: Activity
Malme-3M [5] = experiment: Growth inhibition of human MALME-3M cells assessed as cell growth at 100 uM incubated for 48 hrs by sulforhodamine B assay relative to control; assay type: functional; settings: read-out: Activity
OVCAR-3 [6] = experiment: Growth inhibition of human OVCAR3 cells assessed as cell growth at 0.01 uM incubated for 48 hrs by sulforhodamine B assay relative to control; assay type: functional; settings: OVCAR-3, 48 h, read-out: Activity
Malme-3M [7] = experiment: Growth inhibition of human MALME-3M cells assessed as cell growth at 0.01 uM incubated for 48 hrs by sulforhodamine B assay relative to control; assay type: functional; settings: read-out: Activity
MDA-MB-231 [8] = experiment: Growth inhibition of human MDA-MB-231 cells assessed as cell growth at 0.01 uM incubated for 48 hrs by sulforhodamine B assay relative to control; assay type: functional; settings: MDA-MB-231, 48 h, read-out: Activity
SK-MEL-2 [9] = experiment: Growth inhibition of human SK-MEL-2 cells assessed as cell growth at 100 uM incubated for 48 hrs by sulforhodamine B assay relative to control; assay type: functional; settings: SK-MEL-2, 48 h, read-out: Activity
UACC-257 = experiment: Growth inhibition of human UACC257 cells assessed as cell growth at 100 uM incubated for 48 hrs by sulforhodamine B assay relative to control; assay type: functional; settings: UACC-257, 48 h, read-out: Activity
[10] = read-out: LC50 (the source's name)
[11] = read-out: pLC50 (the source's name) (converted)

With COc1cc(Cl)cc(-c2nn(-c3cccc(NC(=O)Nc4ccc(Cl)c(Cl)c4)c3)cc2-c2ccncc2)c1 the IC50 (UO-31) was 1890 nM, the GI50 (UO-31; read-out: GI50) was 1590 nM and the CC50 (UO-31; [10]) was greater than 100 µM. For the same molecule, the TGI (UO-31; read-out: TGI) was 15.2 µM, the GI50 (UO-31; read-out: pGI50 (converted)) was 1910 nM and the CC50 (UO-31; [11]) was greater than 100 µM. For the same molecule, the TGI (UO-31; read-out: pTGI (converted)) was 18.2 µM, the growth at 100 µM (CCRF-CEM) was -27% and the growth at 0.1 µM (PC-3) was 98%. It also gave a GI50 (HCT-15; read-out: GI50) of 2510 nM, a CC50 (HCT-15; [10]) greater than 100 µM and a TGI (HCT-15; read-out: TGI) of 31.5 µM. For the same molecule, the GI50 (HCT-15; read-out: pGI50 (converted)) was 2510 nM, the CC50 (HCT-15; [11]) was greater than 100 µM and the TGI (HCT-15; read-out: pTGI (converted)) was 31.6 µM. For the same molecule, the growth at 1 µM (RPMI-8226) was 39%, the GI50 (HOP-62; read-out: GI50) was 3.36 µM and the CC50 (HOP-62; [10]) was greater than 100 µM. The TGI (HOP-62; read-out: TGI) was 35.1 µM, the GI50 (HOP-62; read-out: pGI50 (converted)) was 3.39 µM and the CC50 (HOP-62; [11]) was greater than 100 µM. The TGI (HOP-62; read-out: pTGI (converted)) was 35.5 µM, the growth at 0.1 µM (HCT-116) was 100% and the growth at 100 µM (MDA-MB-435) was -33%. It also gave a growth at 100 µM (A549) of -10%, a growth at 0.01 µM (SF-295) of 87% and a growth at 1 µM (ACHN) of 91%. For the same molecule, the GI50 (MCF7; read-out: GI50) was 2560 nM, the LC50 (MCF7; read-out: LC50) was greater than 100 µM and the TGI (MCF7; read-out: TGI) was 13.2 µM. For the same molecule, the GI50 (MCF7; read-out: pGI50 (converted)) was 2570 nM, the LC50 (MCF7; read-out: pLC50 (converted)) was greater than 100 µM and the TGI (MCF7; read-out: pTGI (converted)) was 13.2 µM. It also gave a growth at 1 µM (OVCAR-3 [1]) of 61%, a growth at 0.1 µM (Hs-578T) of 97% and an LC50 (NCI-H23; read-out: LC50) greater than 100 µM. The GI50 (NCI-H23; read-out: pGI50 (converted)) was 2630 nM, the LC50 (NCI-H23; read-out: pLC50 (converted)) was greater than 100 µM and the TGI (NCI-H23; read-out: pTGI (converted)) was 9.12 µM. It also gave a growth at 0.1 µM (MDA-MB-231 [2]) of 96%, a GI50 (SF-539; read-out: GI50) of 2500 nM and a CC50 (SF-539; [10]) greater than 100 µM. The TGI (SF-539; read-out: TGI) was 13.2 µM, the GI50 (SF-539; read-out: pGI50 (converted)) was 2570 nM and the CC50 (SF-539; [11]) was greater than 100 µM. It also gave a TGI (SF-539; read-out: pTGI (converted)) of 13.2 µM, a GI50 (SK-MEL-28; read-out: GI50) of 2960 nM and a CC50 (SK-MEL-28; [10]) greater than 100 µM. For the same molecule, the TGI (SK-MEL-28; read-out: TGI) was 35.6 µM, the GI50 (SK-MEL-28; read-out: pGI50 (converted)) was 2950 nM and the CC50 (SK-MEL-28; [11]) was greater than 100 µM. The TGI (SK-MEL-28; read-out: pTGI (converted)) was 37.2 µM, the GI50 (SK-MEL-2 [3]; read-out: GI50) was 1540 nM and the CC50 (SK-MEL-2 [3]; [10]) was 8.54 µM. The TGI (SK-MEL-2 [3]; read-out: TGI) was 37.4 µM, the GI50 (SK-MEL-2 [3]; read-out: pGI50 (converted)) was 1620 nM and the CC50 (SK-MEL-2 [3]; [11]) was 8.51 µM. For the same molecule, the TGI (SK-MEL-2 [3]; read-out: pTGI (converted)) was 3.72 µM, the growth at 0.1 µM (SK-MEL-2 [4]) was 54% and the growth at 0.01 µM (OVCAR-5) was 93%. It also gave a growth at 100 µM (Malme-3M [5]) of -24%, a growth at 0.01 µM (OVCAR-3 [6]) of 100% and a growth at 0.01 µM (Malme-3M [7]) of 92%. It also gave a growth at 0.01 µM (MDA-MB-231 [8]) of 109%, a growth at 100 µM (SK-MEL-2 [9]) of -70% and a growth at 100 µM (UACC-257) of -36%.
